Entries after “also recorded” stand apart in the source; their conditions may differ. Read-outs that look alike come from different tables or passages of the source.
Assays:
[1] = Social memory (olfactory recognition) in naive rats; assay type: in vivo, rat; settings: 0.5, 1 and 5 mg/kg p.o., vs placebo, dose-dependent
Procedure: Animals were kept at 21° C.±1, with an inverse light-dark cycle (light on from 2:00 P.M. to 2:00 A.M.). The sessions were conducted 7 hr into the dark part of the light/dark cycle, under red illumination. […] The time spent by the adult rat in investigating the juvenile rat was recorded. […] Thus under the influence of a purported memory enhancing drug, the time spent in investigating the same juvenile is expected to be reduced. […] Any reduction in social exploration of this different juvenile is thus considered as reflecting a nonspecific effect of the drug (i.e., not memory related). On no occasion was a subject tested twice with the same juvenile stimulus animal, nor was a juvenile used more than once in a 48-hr period. […] Time spent in social investigation of stimulus juvenile rat was measured (in sec) and then expressed for each animal as the ratio of the second exposure to the first exposure (Ratio of Investigation Duration (RID)). […] Analysis for repeated measurement was made by a 3-way ANOVA and post hoc comparisons were made by simple main effects contrasts analysis.

[2] = tested on: ApoE; assay: ApoE synthesis and secretion in rat primary type 1 astrocytes; assay type: cell-based; settings: 96 hrs; 0.1 nM
Procedure: Primary cultures of type 1 astrocytes were derived from the cortex of Sprague Dawley rats. The compounds tested were dissolved in the culture media and added to cells for 24, 48, 72 and 96 hrs. Media was then removed and kept frozen until ApoE protein levels were evaluated by immunoblot analysis as described in Poirier et al Neuroscience 55: 81-90 (1993).

[3] = Chronic oral toxicity up to 13 weeks, rat; assay type: in vivo, Wistar rat
[4] = Morris water maze in aged rats; assay type: in vivo, rat; settings: for reversal learning: AF267B 1 mg/kg, AF292 1 and 0.5 mg/kg po
Text: Old (22-24 months old) and young (three months old) Sprague-Dawley rats had been tested in the MWM.

[5] = tested on: Adrenergic α1A, α1B, α2A, α2B, α2C, β1, β2; BZD peripheral; Clozapine; Dopamine D1, D2, D3; GABA A; Glutamate sites; Glycine; Histamine H1-H3; Nicotinic …; assay: Selectivity binding panel for AF267B
[6] = biological target: T1, human M1 receptor (Homo sapiens, UniProt P11229); assay: PI hydrolysis, human M1; assay type: cell-based
T1 construct: expressed in transfected cells
T1 sequence (P11229 1-460): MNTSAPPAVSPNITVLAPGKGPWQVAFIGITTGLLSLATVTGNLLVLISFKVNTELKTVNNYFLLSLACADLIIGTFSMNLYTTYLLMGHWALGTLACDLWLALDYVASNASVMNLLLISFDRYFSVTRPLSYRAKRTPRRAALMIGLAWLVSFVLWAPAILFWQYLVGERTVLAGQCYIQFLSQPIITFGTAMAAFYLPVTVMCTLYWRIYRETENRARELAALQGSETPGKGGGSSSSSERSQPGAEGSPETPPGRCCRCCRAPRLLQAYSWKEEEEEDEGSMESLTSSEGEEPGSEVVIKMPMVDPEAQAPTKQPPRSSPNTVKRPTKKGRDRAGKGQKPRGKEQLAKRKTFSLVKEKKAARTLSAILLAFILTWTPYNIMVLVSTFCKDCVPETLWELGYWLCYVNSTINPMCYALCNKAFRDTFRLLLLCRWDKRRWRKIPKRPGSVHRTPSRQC

[7] = Plasma levels of AF267B and its metabolite AF292 in dogs given AF267B (single dose and 13 weeks); assay type: in vivo, Beagle dog
Text: Internal Standard (AF261): 2-Methyl-8-methyl-1-thia-4,8-diaza-spiro[4.5]decan-3-one; MW 200. The analytical plasma samples originate from the in-life part of this study.

[8] = Morris water maze in AF64A-injected rats; assay type: in vivo, rat
Procedure: AF64A or saline-injected (6 months old) Sprague-Dawley rats were tested in the Morris Water Maze (MWM) task. The paradigm used assesses spatial learning abilities in a reference memory regimen, and involves training (days 1-4), transfer test (Probe trial—day 4, 3 min following the last training trial) and reversal test (day 5).
Drugs and PBS were administered once a day for 5 days before starting the behavioral testing, and then for the duration of the 5-day experiment, 30 min before testing.
The three measures, escape latency, path length and swimming speed were analyzed by MANOVA, followed by simple main effects contrast analysis.

[9] = biological target: muscarinic receptors (QNB, rat cerebellar membranes) (Rattus norvegicus, UniProt P10980); settings: read-out: QNB binding, Ki
[10] = Chronic oral toxicity up to 13 weeks, dog
[11] = tested on: rat hippocampal neurons; assay: Survival, morphology and apoptosis of rat hippocampal neurons exposed to Aβ; assay type: cell-based
Procedure: This study was performed in rat hippocampal primary cell cultures using the methods described by Garrido J L et al. (FASEB J 2002; 16:1982).

[12] = biological target: rat M1 mAChR (Rattus norvegicus, UniProt P08482); assay: PI turnover, rat M1 mAChR; assay type: cell-based
[13] = Pharmacokinetic study in dogs; assay type: in vivo, Beagle dog; settings: for bioavailability: Beagle, dog, plasma, po, read-out: Bioavailability (% F)
Text: The results of the PK profile of AF292 in rats and Beagle dogs (overnight fasting; drug administered in water solution; gavage) are listed in Table 1.

[14] = biological target: T2, human M5 receptor (Homo sapiens, UniProt P08912); assay: PI hydrolysis, human M5; assay type: cell-based
T2 construct: expressed in transfected cells

[15] = biological target: T2, human M5 receptor; assay: Arachidonic acid (AA) release, human M5; assay type: cell-based
[16] = dogs, after 13 weeks daily AF267B 1.5, 3, 6 mg/kg po
[17] = female dogs, 13 weeks AF267B 1.5, 3, 6 mg/kg p.o.
[18] = female dogs, single dose (1×) of AF267B 1.5, 3, 6 mg/kg p.o.
[19] = male dogs, 13 weeks AF267B 1.5, 3, 6 mg/kg p.o.
[20] = male dogs, single dose (1×) of AF267B 1.5, 3, 6 mg/kg p.o.

T2 sequence (P08912 whole entry): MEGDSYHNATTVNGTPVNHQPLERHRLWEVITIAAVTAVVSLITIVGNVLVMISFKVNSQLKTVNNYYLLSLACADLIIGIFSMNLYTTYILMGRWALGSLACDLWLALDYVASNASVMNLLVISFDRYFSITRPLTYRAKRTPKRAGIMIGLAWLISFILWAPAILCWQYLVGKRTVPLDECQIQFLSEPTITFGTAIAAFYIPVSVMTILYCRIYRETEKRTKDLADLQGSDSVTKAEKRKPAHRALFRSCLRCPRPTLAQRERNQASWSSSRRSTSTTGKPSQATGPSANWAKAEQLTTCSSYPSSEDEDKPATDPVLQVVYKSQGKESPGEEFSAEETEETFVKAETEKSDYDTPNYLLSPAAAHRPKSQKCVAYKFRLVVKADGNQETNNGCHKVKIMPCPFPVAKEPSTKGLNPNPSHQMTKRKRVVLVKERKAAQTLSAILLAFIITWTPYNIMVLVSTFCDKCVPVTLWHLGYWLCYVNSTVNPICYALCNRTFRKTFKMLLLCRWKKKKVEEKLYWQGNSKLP
rat M1 mAChR, sequence (P08482 whole entry): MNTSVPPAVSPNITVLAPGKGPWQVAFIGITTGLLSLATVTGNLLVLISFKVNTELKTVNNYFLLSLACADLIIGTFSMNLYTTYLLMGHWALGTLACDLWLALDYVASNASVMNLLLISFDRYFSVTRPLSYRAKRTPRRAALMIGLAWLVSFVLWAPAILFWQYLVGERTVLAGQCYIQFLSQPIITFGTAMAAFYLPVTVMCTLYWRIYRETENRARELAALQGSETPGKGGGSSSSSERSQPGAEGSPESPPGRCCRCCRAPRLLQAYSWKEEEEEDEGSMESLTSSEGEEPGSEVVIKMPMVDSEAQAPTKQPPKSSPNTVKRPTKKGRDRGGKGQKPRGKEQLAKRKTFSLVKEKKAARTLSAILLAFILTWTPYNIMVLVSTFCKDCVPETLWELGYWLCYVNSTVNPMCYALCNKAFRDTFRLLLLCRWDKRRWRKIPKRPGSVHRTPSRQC
muscarinic receptors (QNB, rat cerebellar membranes), sequence (P10980 whole entry): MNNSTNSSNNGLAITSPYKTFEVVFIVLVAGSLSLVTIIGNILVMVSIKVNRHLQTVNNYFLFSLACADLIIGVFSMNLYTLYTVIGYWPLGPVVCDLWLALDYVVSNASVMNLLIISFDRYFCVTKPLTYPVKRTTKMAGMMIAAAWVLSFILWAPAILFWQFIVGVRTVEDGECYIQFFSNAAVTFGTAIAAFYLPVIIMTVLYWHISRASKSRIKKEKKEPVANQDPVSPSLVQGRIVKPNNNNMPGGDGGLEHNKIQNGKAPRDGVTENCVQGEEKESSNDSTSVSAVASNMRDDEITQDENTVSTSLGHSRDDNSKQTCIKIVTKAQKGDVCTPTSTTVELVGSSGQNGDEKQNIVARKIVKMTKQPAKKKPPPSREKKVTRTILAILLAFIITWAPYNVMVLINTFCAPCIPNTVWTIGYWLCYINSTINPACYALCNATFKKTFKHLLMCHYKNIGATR

SMILES: CC1=NCC2(CCN(C)CC2)S1 [AF150(S), 2,8-Dimethyl-1-thia-3,8-diaza-spiro[4.5]dec-2-ene]
- investigation time of the same juvenile (RID) [1]: decreased the investigation time
- inhibition of ApoE production [2]: to a lesser extent

SMILES: CC[C@@H]1SC2(CCN(C)CC2)NC1=O [AF267B, (S)-2-ethyl-8-methyl-1-thia-4,8-diaza-spiro[4.5]decan-3-one]
- investigation time of the same juvenile (RID) [1]: decreased the investigation time
- dose at which (muscarinic) effects are seen [3]: > 40 mg/kg
- swimming ability [4]: no significant effect on the swimming ability
- learning ([4]; 1 mg/kg): tendency for improvement
- reversal learning [4]: improved significantly the reversal learning
- binding to other receptors and enzymes [5]: no binding at all
- PI turnover vs. CCh (as 100%) [6]: ~66%
- AUC(0-t) [7, 16]: 712 to 3947 ng·h/mL
- Cmax [7, 16]: 162 to 1352 ng/mL
- Tmax [7, 16]: 1.5 to 3 h
- plasma half life [7, 16]: 1 to 2 h
- MRT (area) ([7]; female dogs, 13 weeks): 3.6 to 5.2 h
- AUC(0-inf) [7, 17]: 1033 to 4164 ng·h/mL
- MRT (area) ([7]; female dogs, single dose (1×)): 4.7 to 5.3 h
- AUC(0-inf) [7, 18]: 985 to 3179 ng·h/mL
- MRT (area) ([7]; male dogs, 13 weeks): 3.0 to 4.2 h
- AUC(0-inf) [7, 19]: 1041 to 4471 ng·h/mL
- MRT (area) ([7]; male dogs, single dose (1×)): 3.8 to 5 h
- AUC(0-inf) [7, 20]: 800 to 3691 ng·h/mL
- reversal test ([8]; AF64A rats, 1 mg/kg): tendency for improvement
- training, escape latency ([8]; AF64A rats, 1 mg/kg): tendency for improvement
- reversal test ([8]; AF64A rats, 3 mg/kg): tendency for impairment
- training performance ([8]; AF64A rats, 3 mg/kg): tended to impair performance
- learning (training) ([8]; AF64A rats, 0.3, 1, 3 mg/kg po): no significant effect on learning
- probe trial, escape latency ([8]; AF64A rats, all doses): complete spatial bias
- Ki [9]: 45.2 ± 10.8 µM
- ECG (heart rate, P wave, P-Q, QRS, QT) ([10]; beagle dogs, oral, up to 13 weeks): no changes in the ECG
- dose at which (muscarinic) effects are seen ([10]; dog): > 9 mg/kg
- no-adverse-effect-level (NOAEL) ([10]; dog, po, up to 13 weeks): 6 to 9 mg/kg/day
- survival and morphology of hippocampal neurons ([11]; 0.5-50 μM, compound alone): does not affect the survival and morphology
- neurites / dendritic shrinkage induced by Aβ1-40 ([11]; blocked by pirenzepine 10 nM): protected the neurons
- PI turnover vs. CCh (as 100%) [12]: PI, rat M1 mAChR: 75%
- bioavailability ([13]; Dogs., 1 mg/kg, p.o.): 53%
- Tmax ([13]; Dogs., 1 mg/kg, p.o.): 0.58 to 0.75 h

SMILES: CC[C@@H]1SC2(CCNCC2)NC1=O [AF292, (S)-2-Ethyl-1-thia-4,8-diaza-spiro[4.5]decan-3-one]
- PI turnover, agonist activity [14]: PI, AA: M5 mAChR - no effect as agonist
- reversal learning [4]: did not reach significance
- probe trial, spatial bias ([4]; both doses (1 and 0.5 mg/kg po)): tendency for partial spatial bias
- AA release, agonist activity [15]: inactive as an agonist; also recorded: PI, AA: M5 mAChR - no effect as agonist
- PI turnover vs. CCh (as 100%) [6]: ~35%
- Cmax vs. the Cmax of AF267B ([7]; dogs): 50-90%
- T1/2 in plasma, times longer than AF267B ([7]; dogs): 3-5 times
- AUC(0-t) [7, 16]: 616 to 2451 ng·h/mL
- Cmax [7, 16]: 136 to 555 ng/mL
- plasma half life [7, 16]: 9 to 20 h
- MRT (area) ([7]; female dogs, 13 weeks): 5.1 to 33.7 h
- AUC(0-inf) [7, 17]: F(13 w): 1866-12723; M(13 w): ng * h/ml
- MRT (area) ([7]; female dogs, single dose (1×)): 8.7 to 18.7 h
- AUC(0-inf) [7, 18]: F (1×): outlier, 3901-4840; M (1×): ng * h/ml
- Elimination half life, Mean T½ (M) ([7]; male dogs): Mean T½ (M) = 6.34 +/− 5.9; h
- MRT (area) ([7]; male dogs, 13 weeks): 5 to 7.8 h
- AUC(0-inf) [7, 19]: 1609 to 4170 ng·h/mL
- MRT (area) ([7]; male dogs, single dose (1×)): 5 to 27.3 h
- AUC(0-inf) [7, 20]: 1142 to 10932 ng·h/mL
- PI turnover vs. CCh (as 100%) [12]: PI, rat M1 mAChR; 50%
- bioavailability ([13]; Dogs, 5 mg/kg. p.o.): 70%
